Values joined by “and” are separate entries in the source; they are usually repeats but may differ in a detail not shown here. Equal entries are not always repeated. Where two headings read alike, the source gives them in different places.
How the values were obtained:
H9c2 cardiomyoblasts = assay: MTT cytotoxicity assay, H9c2 cells; type: cell-based, rat; conditions: for IC50: MTT, read-out: IC50
Method in brief: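 72 h/37°C exposure, 0.1% DMSO. Plating: MCF-7 5,000; HCT116, A549 2,000; H9c2 10,000 cells/well, H9c2 switched to serum/pyruvate-free DMEM 24 h. MTT OD 570 nm, 690 nm background subtracted. Viability as % untreated control; IC50 derived.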

[1] = system: MCF-7 cells prelabeled with 59Fe2-transferrin; assay: Mobilization (efflux) of cellular 59Fe; type: cell-based, human; parameters: Efflux 59Fe / Efflux 59Fe, Ave: unit not given here
Source text: Human transferrin (Sigma) was labeled with ^56Fe or ^59Fe (PerkinElmer, Massachusetts, USA) to produce ^56Fe2-transferrin or ^59Fe2-transferrin (^59Fe2-Tf), respectively, with a final specific activity of 500 pCi/pmol Fe, as previously described. Unbound ^59Fe was removed by exhaustive vacuum dialysis against a large excess of 0.15 M NaCl buffered to pH 7.4 with 1.4% NaHCO3 by standard methods.
To examine the ability of studied compounds to mobilize cellular ^59Fe from MCF-7 cells, iron efflux experiments were performed using established techniques. In brief, after pre-labeling confluent MCF-7 cells on 6-well plates with 0.75 μM ^59Fe2-Tf for 3 h/37°C, the cells were washed four times with ice-cold PBS and then subsequently incubated with 25 μM of Bp4eT or its metabolites for 3 h/37°C. The overlying medium containing released ^59Fe was then decanted from the cells. Radioactivity was measured in both the cells and the supernatant using a γ-scintillation counter (Wallac Wizard 3, Turku, Finland).

caspase 9 = assay: Caspase activity, luminescent kit, caspase 9; type: cell-based, human; conditions: for kaspáza 9, raw signal / kaspáza 9, signal / viabilita: individual experiments by date; for kaspáza 9, raw signal, průměry / kaspáza 9, % kontroly / kaspáza 9, signal / viabilita, průměry: mean; for kaspáza 9, % kontroly / kaspáza 9, signal / viabilita / kaspáza 9, signal / viabilita, průměry: normalised to viability
Method: To assess the effect of the compounds on caspase activity, MCF-7 cells were incubated with 100 nM Bp4eT or its metabolites for 3, 24 or 72 h/37°C in 96-well plates, as described above. The cells were then lysed by adding 100 μL of cold lysis buffer (100 mM HEPES, 10 mM CHAPS, 10 mM D-L-dithiothreitol, pH 7.4) to 100 μL of medium in each well. Lysates were immediately frozen at -80°C. Thawed lysates were used to assess caspase activity using luminescent kits for caspases 3/7, 8 and 9 (Promega, Madison, WI, USA). The luminescence was measured using the Tecan Infinite 200M plate reader. Caspase activity in the experimental groups was corrected according to the cellular viability of each group and expressed as a percentage of activity of the untreated control (100%).

[2] = system: MCF-7 human breast adenocarcinoma cells; assay: MTT cytotoxicity assay, MCF-7 cells; type: cell-based; conditions: for IC50: MTT, read-out: IC50
Method: For cytotoxicity experiments, cancer cells were seeded at a density of 5,000 (MCF-7), 10,000 (HL-60) or 2,000 cells/well (HCT116 and A549) in 96-well plates (TPP) for 24 h/37°C prior to the addition of examined agents. The non-cancerous cells, 3T3 and H9c2 cells, were cultured for 24 h/37°C in 96-well plates at a density of 10,000 cells/well, the medium was then changed to serum- and pyruvate-free DMEM (Sigma-Aldrich) and incubated with the cells for another 24 h/37°C. The cytotoxic effects of Bp4eT and its metabolites were studied at different concentrations after a 72 h/37°C incubation. In order to aid the dissolution of the lipophilic ligands, 0.1% dimethyl sulfoxide (v/v) (DMSO; Sigma-Aldrich) was present in the culture medium of all groups. At this concentration, DMSO had no effect on cellular proliferation or viability.
The viability of cells were determined using an MTT assay (Sigma-Aldrich) according to previously established methods. The optical density of soluble MTT was measured at λ = 570 nm, subtracting the λ = 690 nm background using a Tecan Infinite 200M plate reader (Tecan Group, Männedorf, Switzerland). The viability or proliferation of experimental groups was expressed as a percentage of the untreated controls (100%).
SigmaStat for Windows 3.5 (Systat Software, San Jose, CA, USA) statistical software package was utilized to analyze results. The data are expressed as the mean ± SD of a given number of experiments. Statistical significance was determined using a one-way ANOVA with a Bonferroni post-hoc test or Student’s t-test. The results were considered to be statistically significant when p < 0.05. The IC50 values were calculated using CalcuSyn 2.0 software (Biosoft, Cambridge, UK). Cell cycle analysis was evaluated using MultiCycle AV Software (Phoenix Flow Systems, San Diego, CA, USA).

## CCNC(=O)NN=C(c1ccccc1)c1ccccn1 [E-Bp4eS, 2-benzoylpyridine 4-ethylsemicarbazone]
H9c2 cardiomyoblasts; H9c2, 72 h/37°C, mean ± SD, n ≥ 4
  IC50: 884 ± 279 µM
H9c2 cardiomyoblasts; H9c2, 10 000 b/j, 1 μM, průměr (mean), sheet E-Bp4eS
  MTT, relative to control (0 = 100): 94.39
H9c2 cardiomyoblasts; H9c2, 10 000 b/j, 1 μM, single experiment (date), sheet E-Bp4eS
  MTT, relative to control (0 = 100): 95.7668 and 93.0745 and 94.7872 and 93.9178
H9c2 cardiomyoblasts; H9c2, 10 000 b/j, 3 μM, průměr (mean), sheet E-Bp4eS
  MTT, relative to control (0 = 100): 94.04
H9c2 cardiomyoblasts; H9c2, 10 000 b/j, 3 μM, single experiment (date), sheet E-Bp4eS
  MTT, relative to control (0 = 100): 97.8721 and 90.4272 and 95.5074 and 92.3686
H9c2 cardiomyoblasts; H9c2, 10 000 b/j, 10 μM, průměr (mean), sheet E-Bp4eS
  MTT, relative to control (0 = 100): 92.87
H9c2 cardiomyoblasts; H9c2, 10 000 b/j, 10 μM, single experiment (date), sheet E-Bp4eS
  MTT, relative to control (0 = 100): 97.5948 and 91.5814 and 93.3122 and 89.0018
H9c2 cardiomyoblasts; H9c2, 10 000 b/j, 30 μM, průměr (mean), sheet E-Bp4eS
  MTT, relative to control (0 = 100): 87.33
H9c2 cardiomyoblasts; H9c2, 10 000 b/j, 30 μM, single experiment (date), sheet E-Bp4eS
  MTT, relative to control (0 = 100): 92.2111 and 86.1798 and 89.4636 and 81.4505
H9c2 cardiomyoblasts; H9c2, 10 000 b/j, 100 μM, průměr (mean), sheet E-Bp4eS
  MTT, relative to control (0 = 100): 77.15
H9c2 cardiomyoblasts; H9c2, 10 000 b/j, 100 μM, single experiment (date), sheet E-Bp4eS
  MTT, relative to control (0 = 100): 79.5863 and 76.8996 and 78.6318 and 73.5016
H9c2 cardiomyoblasts; H9c2, 10 000 b/j, 300 μM, průměr (mean), sheet E-Bp4eS
  MTT, relative to control (0 = 100): 65.67
H9c2 cardiomyoblasts; H9c2, 10 000 b/j, 300 μM, single experiment (date), sheet E-Bp4eS
  MTT, relative to control (0 = 100): 61.9338 and 65.3898 and 65.2717 and 70.085
H9c2 cardiomyoblasts; H9c2, 10 000 b/j, 1000 μM, průměr (mean), sheet E-Bp4eS
  MTT, relative to control (0 = 100): 48.11
H9c2 cardiomyoblasts; H9c2, 10 000 b/j, 1000 μM, single experiment (date), sheet E-Bp4eS
  MTT, relative to control (0 = 100): 55.0254 and 43.1142 and 38.2886 and 56.005
H9c2 cardiomyoblasts; H9c2, 10 000 b/j, single experiment (date), sheet E-Bp4eS
  IC50: 683 µM and 1140 µM and 606 µM
H9c2 cardiomyoblasts; Rattus norvegicus, H9c2, H9c2, 10 000 b/j, průměr (mean), sheet E-Bp4eS
  IC50: 884 µM
H9c2 cardiomyoblasts; Rattus norvegicus, H9c2, H9c2, 10 000 b/j, single experiment (date), sheet E-Bp4eS
  IC50: 1100 µM
[1]; average of all replicates
  Efflux 59Fe, Ave: 3.661
[1]; single replicate (three per date)
  Efflux 59Fe: 4.9211 and 3.6997 and 3.3917 and 3.5987 and 3.8929 and 3.2529 and 3.6068 and 3.4574 and 3.1235
Caspase 9; 3 hodiny
  kaspáza 9, raw signal: 5048 and 2733 and 3173 and 2706.5
  kaspáza 9, raw signal, průměry: 3415.12
  kaspáza 9, % kontroly: 105.55 % kontroly
  kaspáza 9, signal / viabilita: 51.4121 and 27.8346 and 32.3159 and 27.5647
  kaspáza 9, signal / viabilita, průměry: 34.7818
Caspase 9; 24 hodin
  kaspáza 9, raw signal: 3856 and 3865 and 5378.5 and 4257
  kaspáza 9, raw signal, průměry: 4339.12
  kaspáza 9, % kontroly: 110.34 % kontroly
  kaspáza 9, signal / viabilita: 38.7665 and 38.857 and 54.073 and 42.798
  kaspáza 9, signal / viabilita, průměry: 43.6236
Caspase 9; 72 hodin
  kaspáza 9, raw signal: 22791 and 20686 and 21610 and 23932
  kaspáza 9, raw signal, průměry: 22254.8
  kaspáza 9, % kontroly: 104.60 % kontroly
  kaspáza 9, signal / viabilita: 233.013 and 211.492 and 220.939 and 244.678
  kaspáza 9, signal / viabilita, průměry: 227.53
[2]; 3T3/MCF-7
  Therapeutic index, IC50 non-cancerous cells / IC50 neoplastic cells: >4.8
[2]; H9c2/MCF-7
  Therapeutic index, IC50 non-cancerous cells / IC50 neoplastic cells: 4.2
[2]; Homo sapiens, MCF7, 72 h, MCF-7, 72 h/37°C, mean ± SD, n ≥ 4
  IC50: 208 ± 43.9 µM
[2]; Homo sapiens, MCF7, MCF-7, 5 000 b/j, průměr (mean)
  IC50: 209 µM
[2]; Homo sapiens, MCF7, MCF-7, 5 000 b/j, single experiment (by date)
  IC50: 194 µM
[2]; MCF-7, 5 000 b/j, single experiment (by date)
  IC50: 169 µM and 199 µM and 271 µM
[2]; MCF-7, 5 000 b/j, koncentrace 1 μM, průměr (mean)
  MTT, value relative to 0 μM = 100: 97.81
[2]; MCF-7, 5 000 b/j, koncentrace 1 μM, single experiment (by date)
  MTT, value relative to 0 μM = 100: 92.729 and 97.0185 and 91.1778 and 97.3834 and 110.755
[2]; MCF-7, 5 000 b/j, koncentrace 3 μM, průměr (mean)
  MTT, value relative to 0 μM = 100: 98.68
[2]; MCF-7, 5 000 b/j, koncentrace 3 μM, single experiment (by date)
  MTT, value relative to 0 μM = 100: 98.4078 and 88.0788 and 100.293 and 107.936
[2]; MCF-7, 5 000 b/j, koncentrace 10 μM, průměr (mean)
  MTT, value relative to 0 μM = 100: 97.39
[2]; MCF-7, 5 000 b/j, koncentrace 10 μM, single experiment (by date)
  MTT, value relative to 0 μM = 100: 92.0003 and 97.1637 and 90.3424 and 98.5326 and 108.927
[2]; MCF-7, 5 000 b/j, koncentrace 30 μM, průměr (mean)
  MTT, value relative to 0 μM = 100: 96.90
[2]; MCF-7, 5 000 b/j, koncentrace 30 μM, single experiment (by date)
  MTT, value relative to 0 μM = 100: 97.756 and 80.695 and 97.8856 and 111.258
[2]; MCF-7, 5 000 b/j, koncentrace 100 μM, průměr (mean)
  MTT, value relative to 0 μM = 100: 90.08
[2]; MCF-7, 5 000 b/j, koncentrace 100 μM, single experiment (by date)
  MTT, value relative to 0 μM = 100: 88.6813 and 85.2546 and 75.1399 and 92.8747 and 108.447
[2]; MCF-7, 5 000 b/j, koncentrace 300 μM, průměr (mean)
  MTT, value relative to 0 μM = 100: 23.35
[2]; MCF-7, 5 000 b/j, koncentrace 300 μM, single experiment (by date)
  MTT, value relative to 0 μM = 100: 24.0916 and 23.1141 and 17.816 and 28.3884
[2]; MCF-7, 5 000 b/j, koncentrace 1000 μM, průměr (mean)
  MTT, value relative to 0 μM = 100: 23.56
[2]; MCF-7, 5 000 b/j, koncentrace 1000 μM, single experiment (by date)
  MTT, value relative to 0 μM = 100: 23.4887 and 24.7991 and 25.8548 and 20.0906
